Read-outs that look alike come from different tables or passages of the source.
Legend:
[1] = tested on: FPR1, FPR2, FPR3, PMN; format: cell-based, human
[2] = biological target: T1, FPR1 (Homo sapiens, UniProt P21462); assay: biochemical; format: binding
T1 construct: expressed in transfected cells; host or cells: HEK293T
T1 sequence (P21462 1-350): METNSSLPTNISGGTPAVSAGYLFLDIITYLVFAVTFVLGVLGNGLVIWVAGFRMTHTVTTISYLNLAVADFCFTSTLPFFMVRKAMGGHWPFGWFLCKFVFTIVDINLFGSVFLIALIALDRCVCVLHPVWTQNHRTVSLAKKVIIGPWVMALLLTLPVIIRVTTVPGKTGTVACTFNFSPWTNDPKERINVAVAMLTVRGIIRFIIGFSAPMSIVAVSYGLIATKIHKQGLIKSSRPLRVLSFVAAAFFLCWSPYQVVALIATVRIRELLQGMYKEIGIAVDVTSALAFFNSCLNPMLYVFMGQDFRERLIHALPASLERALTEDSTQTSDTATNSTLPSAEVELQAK

[3] = biological target: T2, FPR2 (Homo sapiens, UniProt P25090); assay: cell-based; format: binding
T2 construct: expressed in transfected cells; host or cells: HEK293T
T2 sequence (P25090 1-351): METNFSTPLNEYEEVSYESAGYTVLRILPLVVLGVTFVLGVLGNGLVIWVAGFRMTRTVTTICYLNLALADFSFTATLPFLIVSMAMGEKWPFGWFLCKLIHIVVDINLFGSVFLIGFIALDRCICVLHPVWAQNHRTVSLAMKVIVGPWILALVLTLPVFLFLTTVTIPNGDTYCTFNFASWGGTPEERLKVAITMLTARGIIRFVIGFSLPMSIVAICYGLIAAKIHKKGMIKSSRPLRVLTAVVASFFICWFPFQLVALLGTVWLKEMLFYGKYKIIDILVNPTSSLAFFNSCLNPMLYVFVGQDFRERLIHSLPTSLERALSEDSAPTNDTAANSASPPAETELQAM

[4] = biological target: T3, FPR3 (Homo sapiens, UniProt P25089); assay: cell-based; format: binding
T3 construct: expressed in transfected cells; host or cells: HEK293T
T3 sequence (P25089 1-353): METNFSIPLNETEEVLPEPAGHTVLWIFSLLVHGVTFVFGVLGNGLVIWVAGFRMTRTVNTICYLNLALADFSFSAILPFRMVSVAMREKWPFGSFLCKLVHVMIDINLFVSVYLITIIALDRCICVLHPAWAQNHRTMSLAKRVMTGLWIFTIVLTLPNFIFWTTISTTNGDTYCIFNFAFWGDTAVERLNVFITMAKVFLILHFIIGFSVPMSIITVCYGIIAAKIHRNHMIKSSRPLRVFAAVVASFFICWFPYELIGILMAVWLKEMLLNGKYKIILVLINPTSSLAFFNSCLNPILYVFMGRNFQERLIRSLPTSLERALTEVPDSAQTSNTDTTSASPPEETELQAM

[5] = biological target: T1, FPR1; assay: cell-based; format: binding
[6] = biological target: T1, FPR1; format: cell-based
[7] = tested on: human polymorphonuclear granulocytes (PMN; neutrophils); format: cell-based; settings: SARS-CoV-2 omicron B.1.1.529 spike pool peptides, 10 µM, PMN, n=6
[8] = […], it matches an identified peptide or IgG epitope of COVID-19 patients

Compound	non-activators of FPR1 and PMNs: FPR1 [6]	non-activators of FPR1 and PMNs: PMNs [7]	also measured
EQYIKWPWYIWL	–	–	Match with activator (region): Receptor [1]: All FPRs + PMN
CC[C@H](C)[C@H](NC(=O)[C@H](Cc1ccc(O)cc1)NC(=O)[C@H](Cc1c[nH]c2ccccc12)NC(=O)[C@@H]1CCCN1C(=O)[C@H](Cc1c[nH]c2ccccc12)NC(=O)[C@H](CCCCN)NC(=O)[C@@H](NC(=O)[C@H](Cc1ccc(O)cc1)NC(=O)[C@H](CCC(N)=O)NC(=O)[C@@H](N)CCC(=O)O)[C@@H](C)CC)C(=O)N[C@@H](Cc1c[nH]c2ccccc12)C(=O)N[C@@H](CC(C)C)C(=O)O [CV7]	–	–	IC50 ([2]; read-out: IC50 in the BRET assay): 5.1 µM; Kd [3]: 0.489 µM; Kd [4]: 0.347 µM; Kd [5]: 0.014 µM
KVSGNYNYLYRLFRK	non-activators of FPR1 and PMNs	non-activators of FPR1 and PMNs	Match with activator (region): Receptor [1, 8]: FPR3
ITNLCPFDEVFNATR	non-activators of FPR1 and PMNs	non-activators of FPR1 and PMNs	Match with activator (region): Receptor [1, 8]: FPR3
DYSVLYNLAPFFTFKCYGVSPTK	–	–	Match with activator (region): Receptor [1, 8]: FPR3
QVKQIYKTPPIKYFGGFNFSQILPDPS	–	–	Match with activator (region): Receptor [1]: FPR3
CC[C@H](C)[C@H](NC(=O)[C@H](Cc1ccc(O)cc1)NC(=O)[C@H](CCC(N)=O)NC(=O)[C@@H](N)CCC(=O)O)C(=O)N[C@@H](CCCCN)C(=O)N[C@@H](Cc1c[nH]c2ccccc12)C(=O)N1CCC[C@H]1C(=O)N[C@@H](Cc1c[nH]c2ccccc12)C(=O)N[C@@H](Cc1ccc(O)cc1)C(=O)N[C@H](C(=O)N[C@@H](Cc1c[nH]c2ccccc12)C(=O)N[C@@H](CC(C)C)C(=O)O)C(C)C [CV3]	–	–	IC50 [2]: 3.8 µM
VLPFNDGVYFASIEKSNIIRGWIFGTT	–	–	Match with activator (region): Receptor [1]: FPR3
TYGVGHQPYRVVVLSFELL	–	–	Match with activator (region): Receptor [1, 8]: PMN + FPR1
DGYFKIYSKHTPIIV	non-activators of FPR1 and PMNs	non-activators of FPR1 and PMNs	Match with activator (region): Receptor [1]: FPR2 + FPR3
VLNDIFSRLDKVEAE	non-activators of FPR1 and PMNs	non-activators of FPR1 and PMNs	–
IEKSNIIRGWIFGTT	non-activators of FPR1 and PMNs	non-activators of FPR1 and PMNs	–
LKSYSFRPTYGVGHQ	non-activators of FPR1 and PMNs	non-activators of FPR1 and PMNs	–
YGSFCTQLKRALTGI	non-activators of FPR1 and PMNs	non-activators of FPR1 and PMNs	–
NDGVYFASIEKSNII	non-activators of FPR1 and PMNs	non-activators of FPR1 and PMNs	–
FHVISGTNGTKRFDN	non-activators of FPR1 and PMNs	non-activators of FPR1 and PMNs	–
NGLKGTGVLTESNKK	non-activators of FPR1 and PMNs	non-activators of FPR1 and PMNs	–
KLDSKVSGNYNYLYR	non-activators of FPR1 and PMNs	non-activators of FPR1 and PMNs	–
CYFPLKSYSFRPTYG	non-activators of FPR1 and PMNs	non-activators of FPR1 and PMNs	–
FERDISTEIYQAGNK	non-activators of FPR1 and PMNs	non-activators of FPR1 and PMNs	–
VAVLYQGVNCTEVPV	non-activators of FPR1 and PMNs	non-activators of FPR1 and PMNs	–

Reference: article PMC12284294 (iScience, 2025)
